Measurements published in US20230391765A1, “HETEROBIFUNCTIONAL COMPOUNDS AS DEGRADERS OF ENL” (ICAHN SCHOOL OF MEDICINE AT MOUNT SINAI, priority 2020, published 2023).

Legend:
Type in all cases: cell-based
ENL [1] = target: T1, ENL (Homo sapiens, UniProt Q03111); assay: Western blot of ENL protein levels in MV4; 11 cells; conditions: 11 cells; for ENL protein level after long treatment: 1 μM for 48 and 72 h
T1 construct: Cells were lysed and expression of endogenous ENL was assessed by Western blot analysis; host or cells: MV4;11
T1 sequence (Q03111 1-559): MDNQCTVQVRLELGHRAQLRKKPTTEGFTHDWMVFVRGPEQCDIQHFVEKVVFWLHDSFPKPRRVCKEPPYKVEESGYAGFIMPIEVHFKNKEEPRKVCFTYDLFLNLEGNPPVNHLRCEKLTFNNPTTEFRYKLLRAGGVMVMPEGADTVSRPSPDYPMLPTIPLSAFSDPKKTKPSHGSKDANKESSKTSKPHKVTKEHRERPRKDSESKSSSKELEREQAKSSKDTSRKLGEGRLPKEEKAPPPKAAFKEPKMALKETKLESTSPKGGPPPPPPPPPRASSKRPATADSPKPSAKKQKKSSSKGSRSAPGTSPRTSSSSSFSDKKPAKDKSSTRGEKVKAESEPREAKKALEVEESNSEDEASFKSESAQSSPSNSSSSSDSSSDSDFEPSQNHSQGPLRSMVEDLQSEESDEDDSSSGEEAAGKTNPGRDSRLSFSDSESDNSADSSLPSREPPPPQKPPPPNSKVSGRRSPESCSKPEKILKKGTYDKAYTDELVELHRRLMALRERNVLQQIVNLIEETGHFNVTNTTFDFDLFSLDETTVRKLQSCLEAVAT
Experimental: MV4; 11 cells were treated with DMSO or the indicated compounds (the same panel of ENL degraders as shown in FIG. 4) at 1 μM and 10 μM for 24 h. Cells were lysed and expression of ENL was assessed by Western blot analysis.
DMSO treated cells were used as control.
MV4; 11 cells were treated with LQ076-122, or LQ081-107 at 0.3, 1, 3, 10, and 30 μM for 24 h. DMSO treated cells were used as control. Cells were lysed and expression of ENL and GAS41 was assessed by Western analysis.
MV4; 11 cells were treated with DMSO or the indicated compounds at 1 μM and 10 μM for 6 h. Cells were lysed and expression of endogenous ENL was assessed by Western blot analysis.
Cells were treated with 1 μM of ENL degrader with or without 1 μM proteasome inhibitor MG132 for 6 h.
(§1) ENL degraders were dissolved in DMSO. DMSO with no degraders was used as the control. 1×10^6 leukemia cells were seeded in 5 mL medium. For prescreening of compounds, each test compound was added to the medium at 1 μM and 10 μM. Cells were collected after 24 h treatment. For the concentration-dependent treatment, candidate compounds were added to the medium at a series of concentration as indicated in figures. Cells were collected after 24 h treatment. For the time-course treatment, candidate compounds were added to the medium at a final concentration of 4 μM (MV4; 11 cells) or 8 μM (MOLM13 cells). Cells were collected at the indicated timepoints (in hours: 12, 16, 20, 24 and 36 h).
(§2) After ENL degrader treatment, cells were collected, lysed, and total cell lysates were used for Western blot. The following primary antibodies were used: ENL (Cell Signaling Technology), GAS41 (Santa Cruz), GAPDH (Santa Cruz), β-actin (Sigma). Blots were detected using HRP-conjugated secondary antibodies.

ENL [2] = target: T1, ENL; assay: Western blot of ENL protein levels in Jurkat cells; conditions: for reduction of ENL protein levels: 1 nM to 10 μM for 6 h; for ENL protein level after long treatment: 1 μM for 48 and 72 h
Source text: […] DMSO was used as negative control.
as §2

ENL [3] = target: T1, ENL; assay: Western blot of ENL protein levels in MOLM13 cells; conditions: for reduction of ENL protein levels: 1 nM to 10 μM for 6 h; for ENL protein level after long treatment: 1 μM for 48 and 72 h
Experimental: MOLM13 cells were treated with LQ076-122 or LQ081-108 at 0, 0.25, 0.5, 1, 1.5, 2, 2.5, 3, 4 and 8 μM for 24 h.
MOLM13 cells were treated with DMSO or 8 μM of LQ076-122 for 12, 16, 20, 24 and 36 h.
MV4; 11, MOLM13 and Jurkat cells were treated with LQ108-69, LQ108-71, LQ108-72, LQ126-62 and LQ126-63 at 0, 1 nM, 10 nM, 100 nM, 1 μM, and 10 μM doses for 6 h. DMSO was used as negative control.
as §1, §2

[4] = tested on: ENL-dependent MV4; 11 cells; assay: Cell viability (CellTiter-Glo), MV4; 11 cells; conditions: 11 cells, 1.25, 2.5, 5 and 10 μM for 72 h
Experimental: MV4; 11 (FIG. 13A), MOLM13 (FIG. 13B) and Jurkat (FIG. 13C) cells were seeded at 2×10^5 cells/mL density and treated with DMSO or indicated compounds 0.5, 1, 2 and 4 μM for 72 h. Cell viability was measured using CellTiter-Glo reagent (Promega) and relative cell viability was calculated by normalization to DMSO samples.
(§3) ENL-dependent MV4; 11 cells were seeded at 2×10^5 cells/mL density and treated with DMSO or the indicated compounds at 0, 1.25, 2.5, 5 and 10 μM for 72 h. Cell viability was measured using CellTiter-Glo reagent (Promega) and relative cell viability was calculated by normalization to DMSO samples.
as §3, with “11 and ENL-independent Jurkat” for “11”, “or” for “or the”, “10 nM, 100 nM, 1 μM” for “0, 1.25, 2.5, 5”, “3 days (A) or 6 days (B).” for “72 h.”
MV4; 11 or MOLM13 cells were seeded at 0.2×10^6 cells/mL density. Cells were treated with DMSO or ENL degraders at indicated concentrations. Each treatment was done in triplicates. After 72 h treatment, 100 μL of cell suspension from each treatment was mixed with 25 μL of CellTiter-Glo reagent (Promega) and incubated for 10 min before the luminescence signals were detected on a plate reader.

Compound: Cc1ncsc1-c1ccc([C@H](CC(=O)NCCCCCCCCCNC(=O)c2ccc3c(c2)[C@H](NC(=O)c2cc(-c4ccc(C(=O)N(C)C)c(O)c4)on2)CC3)NC(=O)[C@@H]2C[C@@H](O)CN2C(=O)[C@@H](NC(=O)C2(F)CC2)C(C)(C)C)cc1 [LQ108-72, 5-(4-(dimethylcarbamoyl)-3-hydroxyphenyl)-N—((R)-6-((9-((S)-3-((2S,4R)-1-((S)-2-(1-fluorocyclopropane-1-carboxamido)-3,3-dimethylbutanoyl)-4-hydroxypyrrolidine-2-carboxamido)-3-(4-(4-methylthiazol-5-yl)phenyl)propanamido)nonyl)carbamoyl)-2,3-dihydro-1H-inden-1-yl)isoxazole-3-carboxamide]
- reduction of ENL protein levels (ENL [1]; 1 nM to 10 μM for 6 h): reduced ENL protein levels in a concentration-dependent manner
- ENL protein level after long treatment (ENL [1]): maintained the ENL protein at low levels
- reduction of ENL protein levels (ENL [2]): reduced ENL protein levels in a concentration-dependent manner
- ENL protein level after long treatment (ENL [2]): maintained the ENL protein at low levels
- reduction of ENL protein levels (ENL [3]): reduced ENL protein levels in a concentration-dependent manner
- ENL protein level after long treatment (ENL [3]): maintained the ENL protein at low levels
- suppression of cell growth (relative cell viability) [4]: significantly suppressed MV4; 11 cell growth at low micromolar concentration

Compound: Cc1ncsc1-c1ccc(CNC(=O)[C@@H]2C[C@@H](O)CN2C(=O)[C@@H](NC(=O)CCCCCCCCCNC(=O)c2ccc(C(=O)Nc3ccc4[nH]c(CN5CCC[C@@H]5C)nc4c3)cc2)C(C)(C)C)cc1 [LQ076-121, N^1-(10-(((S)-1-((2S,4R)-4-hydroxy-2-((4-(4-methylthiazol-5-yl)benzyl)carbamoyl)pyrrolidin-1-yl)-3,3-dimethyl-1-oxobutan-2-yl)amino)-10-oxodecyl)-N^4-(2-(((S)-2-methylpyrrolidin-1-yl)methyl)-1H-benzo[d]imidazol-5-yl)terephthalamide]
- reduction of ENL protein levels (ENL [1]; 10 μM, 24 h): effective in reducing ENL protein levels

Compound: Cn1ncc2cc(C(=O)Nc3ccc4[nH]c(CN5CCC(CCNC(=O)CCCCCCCNc6cccc7c6C(=O)N(C6CCC(=O)NC6=O)C7=O)C5)nc4c3)ccc21 (centres unmarked) [LQ076-99, N-(2-((3-(2-(8-((2-(2,6-dioxopiperidin-3-yl)-1,3-dioxoisoindolin-4-yl)amino)octanamido)ethyl)pyrrolidin-1-yl)methyl)-1H-benzo[d]imidazol-5-yl)-1-methyl-1H-indazole-5-carboxamide]
- reduction of ENL protein levels (ENL [1]; 10 μM, 24 h): effective in reducing ENL protein levels

Compound: Cc1ncsc1-c1ccc([C@H](CC(=O)NCCCCCCCCNC(=O)c2ccc3c(c2)[C@H](NC(=O)c2cc(-c4ccc(C(=O)N(C)C)c(O)c4)on2)CC3)NC(=O)[C@@H]2C[C@@H](O)CN2C(=O)[C@@H](NC(=O)C2(F)CC2)C(C)(C)C)cc1 [LQ108-71, 5-(4-(dimethylcarbamoyl)-3-hydroxyphenyl)-N—((R)-6-((8-((S)-3-((2S,4R)-1-((S)-2-(1-fluorocyclopropane-1-carboxamido)-3,3-dimethylbutanoyl)-4-hydroxypyrrolidine-2-carboxamido)-3-(4-(4-methylthiazol-5-yl)phenyl)propanamido)octyl)carbamoyl)-2,3-dihydro-1H-inden-1-yl)isoxazole-3-carboxamide]
- reduction of ENL protein levels (ENL [1]; 1 nM to 10 μM for 6 h): reduced ENL protein levels in a concentration-dependent manner
- ENL protein level after long treatment (ENL [1]): maintained the ENL protein at low levels
- reduction of ENL protein levels (ENL [2]): reduced ENL protein levels in a concentration-dependent manner
- ENL protein level after long treatment (ENL [2]): maintained the ENL protein at low levels
- reduction of ENL protein levels (ENL [3]): reduced ENL protein levels in a concentration-dependent manner
- ENL protein level after long treatment (ENL [3]): maintained the ENL protein at low levels
- suppression of cell growth (relative cell viability) [4]: significantly suppressed MV4; 11 cell growth at low micromolar concentration

Compound: Cc1ncsc1-c1ccc(CNC(=O)[C@@H]2C[C@@H](O)CN2C(=O)[C@@H](NC(=O)CCCCCCCCNC(=O)c2ccc(C(=O)Nc3ccc4[nH]c(CN5CCC[C@@H]5C)nc4c3)cc2)C(C)(C)C)cc1 [LQ076-120, N^1-(9-(((S)-1-((2S,4R)-4-hydroxy-2-((4-(4-methylthiazol-5-y)benzyl)carbamoyl)pyrrolidin-1-yl)-3,3-dimethyl-1-oxobutan-2-yl)amino)-9-oxononyl)-N^4-(2-(((S)-2-methylpyrrolidin-1-yl)methyl)-1H-benzo[d]imidazol-5-yl)terephthalamide]
- reduction of ENL protein levels (ENL [1]; 10 μM, 24 h): effective in reducing ENL protein levels

Compound: C[C@H]1CCCN1Cc1nc2cc(NC(=O)c3ccc(C(=O)NCCCCCCCCNc4cccc5c4C(=O)N(C4CCC(=O)NC4=O)C5=O)cc3)ccc2[nH]1 (stereo partly drawn) [LQ076-134, N^1-(8-((2-(2,6-dioxopiperidin-3-yl)-1,3-dioxoisoindolin-4-yl)amino)octyl)-N^4-(2-(((S)-2-methylpyrrolidin-1-yl)methyl)-1H-benzo[d]imidazol-5-yl)terephthalamide]
- reduction of ENL protein levels (ENL [1]; 10 μM, 24 h): effective in reducing ENL protein levels

Compound: Cn1ncc2cc(C(=O)Nc3ccc4[nH]c(CN5CCC(CCNC(=O)CCCCCCNc6cccc7c6C(=O)N(C6CCC(=O)NC6=O)C7=O)C5)nc4c3)ccc21 (centres unmarked) [LQ076-98, N-(2-((3-(2-(7-((2-(2,6-dioxopiperidin-3-yl)-1,3-dioxoisoindolin-4-yl)amino)heptanamido)ethyl)pyrrolidin-1-yl)methyl)-1H-benzo[d]imidazol-5-yl)-1-methyl-1H-indazole-5-carboxamide]
- reduction of ENL protein levels (ENL [1]; 10 μM, 24 h): effective in reducing ENL protein levels

Compound: Cc1ncsc1-c1ccc(CNC(=O)[C@@H]2C[C@@H](O)CN2C(=O)[C@@H](NC(=O)C2(F)CC2)C(C)(C)C)c(OCC(=O)NCCCCCCCNC(=O)c2ccc3c(c2)[C@H](NC(=O)c2cc(-c4ccc(C(=O)N(C)C)c(O)c4)on2)CC3)c1 [LQ108-63, 5-(4-(dimethylcarbamoyl)-3-hydroxyphenyl)-N-((R)-6-((7-(2-(2-(((2S,4R)-1-((S)-2-(1-fluorocyclopropane-1-carboxamido)-3,3-dimethylbutanoyl)-4-hydroxypyrrolidine-2-carboxamido)methyl)-5-(4-methylthiazol-5-yl)phenoxy)acetamido)heptyl)carbamoyl)-2,3-dihydro-1H-inden-1-yl)isoxazole-3-carboxamide]
- effect of proteasome inhibitor MG132 on the ENL degradation induced by the degrader (ENL [1]; 1 μM degrader with or without 1 μM MG132 for 6 h): partially blocks the ENL degradation
